The record followed here is ChEMBL document CHEMBL1152216, “Pyrazino[1,2-b]isoquinolines: synthesis and study of their cytostatic and cytotoxic properties” (2008).

As usually defined, the GI50 is the concentration at which growth is held to half of that of the control. Read a high GI50 as lower sensitivity of the cells. As usually defined, the TGI is the concentration giving total growth inhibition. The low end stands for more potent growth arrest, the high end for less potent growth arrest. The term LC50 denotes the concentration lethal to half of the exposed cells or organisms. A higher LC50 goes with lower toxicity.

Active and inactive are the calls of the source. The calls are words filed in the database; no cut-off is given here.

For test [1], the system named is HT-29. The test is described as follows: Growth inhibition of human HT-29 cells after 48 hrs by MTT assay. It counts as functional. To be noted: HT-29, 48 h. For orientation: Tetrazolium assays rely on reduction of a dye to a coloured formazan, in cell work by metabolically active cells.
Test [2] concerns A549. The test is described as follows: Growth inhibition of human A549 cells after 48 hrs by MTT assay. The conditions noted are these: A549, 48 h. It counts as functional.
The test system of test [3] is MDA-MB-231. Put plainly: Growth inhibition of human MDA-MB-231 cells after 48 hrs by MTT assay. The conditions noted are these: MDA-MB-231, 48 h. It counts as functional.
The test system of test [4] is HT-29. The test is described as follows: Cytotoxicity against human HT-29 cells after 48 hrs by MTT assay. The conditions noted are these: HT-29, 48 h, read-out: LC50 (the source's name). It counts as functional.
Test [5] relates to A549. Put plainly: Cytotoxicity against human A549 cells after 48 hrs by MTT assay. It counts as functional. The conditions noted are these: A549, 48 h.
Test [6] has as its system A549. The test is described as follows: Induction of apoptosis in human A549 cells assessed as AKT signaling pathway activation at 50 uM after 24 hrs by Western blot. It counts as functional, cell-based. A general note: A western blot detects proteins with antibodies after separation by electrophoresis.
Test [7] has as its system A549. The test is described as follows: Induction of apoptosis in human A549 cells at 50 uM after 48 hrs by propidium iodide staining. It counts as functional, cell-based.
Test [8] relates to A549. The test is described as follows: Induction of DNA cleavage in human A549 cells assessed as CHK2 Ser19 phosphorylation at 50 uM after 24 hrs by Western blot. It counts as functional, cell-based.
Test [9] has as its system A549. Put plainly: Induction of apoptosis in human A549 cells assessed as p38 activation at 50 uM after 24 hrs by Western blot. It counts as functional, cell-based.
Test [10] deals with A549. Put plainly: Induction of apoptosis in human A549 cells assessed as JNK activation at 50 uM after 24 hrs by Western blot. It counts as functional, cell-based.
The subject of test [11] is A549. The test is described as follows: Cell cycle arrest in human A549 cells assessed as increase in accumulation at G1 phase at […] after 48 hrs by flow cytometry. It counts as functional, cell-based. (In flow cytometry, cells or beads pass a laser one at a time.)
For test [12], the system named is A549. Put plainly: Cell cycle arrest in human A549 cells assessed as decrease in accumulation at G2/M phase at […] after 48 hrs by flow cytometry. It counts as functional, cell-based.
Test [13] deals with A549. Put plainly: Induction of DNA cleavage in human A549 cells assessed as p53 Ser15 phosphorylation at 50 uM after 24 hrs by Western blot. It counts as functional, cell-based.
Test [14] concerns A549. Put plainly: Induction of DNA cleavage in human A549 cells assessed as H2AX phosphorylation at 50 uM after 24 hrs by Western blot. It counts as functional, cell-based.
For test [15], the system named is MDA-MB-231. Put plainly: Cytotoxicity against human MDA-MB-231 cells after 48 hrs by MTT assay. It counts as functional. The conditions noted are these: MDA-MB-231, 48 h, read-out: LC50 (the source's name).
For test [16], the system named is A549. Put plainly: Cell cycle arrest in human A549 cells assessed as decrease in accumulation at G1 phase at […] after 48 hrs by flow cytometry. It counts as functional, cell-based.

Take `COc1c(C)c(OC)c2c(c1OC)[C@@H]1CN3C(=O)c4ccccc4[C@@H]3O[C@H]2C2=CN(C(=O)OC(C)C)CC(=O)N21` (relative stereo): the GI50 stood at 10.4 µM in the test with HT-29 [1] and 2.91 µM in the test with A549 [2].
Turning to `COc1c(C)c(OC)c(OC)c2c1C[C@H]1CN(C(=O)OC(C)C)CC(=O)N1[C@H]2COCc1ccccc1` (relative stereo), the 50% growth inhibitory concentration (GI50) in the test on HT-29 [1] stood at 0.195 µM; in the test with A549 [2], 0.449 µM; in the test on MDA-MB-231 [3] it was 1.09 µM. Further, the figures for the TGI in the test on HT-29 [1] and with A549 [2] were 0.273 µM and 1.89 µM, respectively. The CC50 in the test on HT-29 [4] is 0.527 µM.
In the test with A549 [2], `COc1c(C)c(OC)c(OC)c2c1C[C@H]1CNCC(=O)N1[C@H]2COCc1ccccc1` (relative stereo) yielded a 50% growth inhibitory concentration (GI50) of 13.4 µM and a TGI of over 23.4 µM. Further, the median lethal concentration (LC50) in the test with A549 [5] was over 23.4 µM.
For the molecule `COc1c(C)c(OC)c(OC)c2c1C=C1CN(C)CC(=O)N1[C@H]2CN1Cc2ccccc2C1=O`, the values for the GI50 in the test on HT-29 [1] and in the test with MDA-MB-231 [3] were 3.67 µM and 11.9 µM, respectively.
Consider `COc1c(C)c(OC)c(OC)c2c1C[C@H]1CN(C(=O)OC(C)C)CC(=O)N1[C@H]2COC(=O)/C=C/c1ccccc1` (relative stereo), for which the outcome in the test on A549 [6], in the test with A549 [8], in the test with A549 [9], in the test on A549 [10], in the test with A549 [13] and in the test with A549 [14] was inactive. The outcome in the test with A549 [7], in the test with A549 [11] and with A549 [12] was Active. Further, the GI50 in the test with HT-29 [1] is 9.23 µM; in the test on A549 [2] it was 9.05 µM.
With `COc1c(C)c(OC)c(OC)c2c1C[C@H]1[C@H](C#N)N3C([C@@H]4O[C@H]5c6ccccc6[C@H](C#N)N5C[C@H]3c3c(OC)c(OC)c(C)c(OC)c34)[C@@H]2N1C` (relative stereo), the outcome in the test with A549 [6], in the test on A549 [8], in the test on A549 [9], with A549 [10], with A549 [13] and in the test on A549 [14] was inactive. Besides, the CC50 with MDA-MB-231 [15] turned out to be 12.8 µM; in the test on HT-29 [4], 10.2 µM. Further, the GI50 is 7.35 µM with HT-29 [1], 11.4 µM in the test with A549 [2] and 11.4 µM in the test with MDA-MB-231 [3]. The results for the concentration for total growth inhibition (TGI) with HT-29 [1], in the test on A549 [2] and with MDA-MB-231 [3] were 8.22 µM, 12 µM and 12 µM, respectively. Further, the LC50 with A549 [5] stood at 12.7 µM.
In the case of `COc1cc2c(cc1O)CCN[C@]21CS[C@@H]2c3c(OC(C)=O)c(C)c4c(c3[C@H](COC1=O)N1[C@@H]2[C@H]2c3c(cc(C)c(OC)c3O)C[C@@H]([C@@H]1O)N2C)OCO4` [TRABECTEDIN], the GI50 is 0.0517 µM in the test on HT-29 [1], 0.125 µM with A549 [2] and 0.0551 µM in the test with MDA-MB-231 [3]. Besides, the TGI in the test on HT-29 [1] is 0.063 µM; in the test on A549 [2] it was 0.131 µM; in the test with MDA-MB-231 [3] it was 0.0578 µM.
Regarding `COc1c(C)c(OC)c(OC)c2c1C[C@H]1[C@@H](O)N(C(=O)OC(C)C)CC(=O)N1[C@H]2COCc1ccccc1` (relative stereo), the result in the test with A549 [6], in the test with A549 [8], in the test with A549 [9], in the test with A549 [10], in the test with A549 [13] and with A549 [14] was inactive. The result in the test on A549 [7], in the test on A549 [16] and in the test on A549 [12] was Active. For the same molecule, the GI50 with HT-29 [1] was found to be 8.32 µM; in the test on A549 [2], 5.68 µM; in the test with MDA-MB-231 [3], 9.27 µM. Moreover, the results for the TGI in the test with HT-29 [1], in the test on A549 [2] and in the test on MDA-MB-231 [3] were 9.84 µM, 11.7 µM and 15.3 µM, respectively. This molecule displayed a median lethal concentration (LC50) in the test with A549 [5] of 17.4 µM.
With `COc1c(C)c(OC)c(OC)c2c1C[C@H]1[C@@H](O)N(C(=O)OC(C)(C)C)CC(=O)N1[C@H]2COCc1ccccc1` (relative stereo), the CC50 in the test on MDA-MB-231 [15] and with HT-29 [4] was over 18.4 µM each time. For the same molecule, the GI50 amounted to 14.4 µM in the test on HT-29 [1], 4.79 µM in the test on A549 [2] and 12 µM with MDA-MB-231 [3]. The TGI in the test on HT-29 [1] is over 18.4 µM; in the test with A549 [2], 17.5 µM; in the test on MDA-MB-231 [3], over 18.4 µM. In the test on A549 [5], this molecule gave an LC50 of over 18.4 µM.
Turning to `COc1c(C)c(OC)c(OC)c2c1C[C@@H]1CN(C(=O)OC(C)C)CC(=O)N1[C@H]2COCc1ccccc1` (relative stereo), in the test on HT-29 [1], it took 10.5 µM to inhibit growth by half (GI50). Besides, in the test with A549 [2], halving of growth (GI50) required 8.19 µM and the TGI was 16.8 µM.
Turning to `COc1c(C)c(OC)c(OC)c2c1C[C@H]1CN(C)CC(=O)N1[C@H]2COCc1ccccc1` (relative stereo), in the test with A549 [2], the GI50 was 12.7 µM and the concentration for total growth inhibition (TGI) is over 22.7 µM. For the same molecule, the LC50 in the test on A549 [5] was over 22.7 µM.
